Results on two molecules are retold here after paper PMC3967244 (Clinical cancer research : an official journal of the …, 2013).

For data set [1], the system named is RAI avidity of tumor tissue. The following applies: cited from earlier work.
The test system of data set [2] is cutaneous T-cell lymphoma (CTCL). The following applies: two Phase II trials, 167 patients with CTCL; cited from earlier work.
The nature of data set [3]: Plasma pharmacokinetics by LC/MS.
The test system of data set [4] is acetylated histone H3 in patient PBMCs. As to the kind of experiment: Histone acetylation in peripheral blood mononuclear cells. The format is in vivo, human.
Data set [5] deals with ST segment and T wave changes. As to the kind of experiment: ECG evaluation, graded ST segment and T wave changes. It counts as in vivo, human.
The test system of data set [6] is histone acetylation in PBMCs. The note with it: day 1, 8 and 15 schedule, four hours; cited from earlier work.
Data set [7] deals with solid tumors. As to the kind of experiment: Efficacy evaluation, objective disease response by RECIST v.1. The format is in vivo, human.
Data set [8] concerns differentiated and anaplastic thyroid cancer cell lines. The note with it: in vitro, cited from earlier work.
The test system of data set [9] is patients with solid tumors. The note with it: in vivo.
In data set [10] the test system is patients with solid tumors. As to the kind of experiment: Phase I toxicity evaluation and dose escalation. The following applies: four-hour infusion on days 1, 3 and 5 of a 21-day cycle.
Data set [11] concerns radioactive iodine uptake in refractory thyroid cancer. As to the kind of experiment: Radiolabeled sodium iodide. The format is in vivo, human. The note with it: six of eleven patients with thyroid cancer.
Data set [12] concerns peripheral T-cell lymphoma (PTCL). The following applies: two Phase II trials in PTCL; cited from earlier work.
Where [13] appears, read: 27 of 28 patients, days 1, 3, and 5 of cycle 1.

“Also recorded” adds a separate entry of the source. Read-outs that look alike come from different tables or passages of the source. Marks after values point to notes of the source that are not given here.

Take `O=C(CCCCCCC(=O)Nc1ccccc1)NO` [vorinostat]: the “RAI in tumor tissue” value in data set [1] (one patient) is recorded as “increased”.
As to `C/C=C1\NC(=O)[C@H]2CSSCC/C=C/[C@H](CC(=O)N[C@H](C(C)C)C(=O)N2)OC(=O)[C@H](C(C)C)NC1=O` [romidepsin, Romidepsin], the “Overall response rate (ORR)” value in data set [2] was 34–35%. Moreover, in [3] (1 to 9 mg/m^2), the “Dose dependence of CMAX and AUCLAST” value was “linear pharmacokinetics”. Besides, in data set [3] (setting [13]), the “Inter-day patient variability (%CV) for AUCLAST” value was 2–59% and the “Inter-day patient variability (%CV) for CMAX” value is listed as 5–68%. In [3] (all dose levels), the Clearance result is “rapid clearance”. In data set [3] (most patients, lower limit of quantitation 2 ng/ml), the “Plasma romidepsin concentration 14 hours after completing the infusion” value is given as “below the lower limit of quantitation”. Moreover, the “Median increase in histone acetylation over baseline” value in [4] (4h time-point, 9.9 mg/m^2) is 3 fold. In addition, the “Increase in histone acetylation in PBMCs” value in data set [4] (4h time-point, dose of 3.3 mg/m^2 or higher) is on record as no less than 2 fold. In addition, the “Accumulation in acetylation over the 5 days of treatment” value in data set [4] (days 1, 3, 5) is “no accumulation in acetylation”. For the same molecule, the “Patients with no measurable increase in AcH3” value in data set [4] (dose level 1 or 2) is on record as “Five of six”. In addition, the “Apparent threshold dose for histone acetylation in PBMCs” value in data set [4] (fold-increase in acetylation over pre-dose levels by cohort) came out at 3.3 mg/m^2. In data set [5] (24-hour timepoint, dose level 5 (7 mg/m^2) and onward), the “Patients with Grade 2 ST and T wave changes” value is “over half of patients”. For the same molecule, the “Grade 1 ST and T wave changes” value in data set [5] (by dose level) is given as “noted from the first dose level onward”. In data set [5] (dose levels above 5 mg/m^2), the “Grade 2 ST and T wave changes” value was “observed frequently”. Moreover, the “Median increase in histone acetylation in PBMCs” value in [6] is recorded as 3 fold. Moreover, in [7] (28 patients with solid tumors, all dose levels), the RECIST-defined objective response entry is “No RECIST-defined objective responses; also recorded: no patient met criteria for RECIST-defined objective response”. In addition, the “Patients with stable disease” value in data set [7] (of 28 patients, minimum of six cycles (18 weeks)) was “nine”. In addition, the “Range of duration of stable disease, thyroid cancer” value in [7] (six patients with thyroid cancer) is 26–112 weeks. In data set [8] (nontoxic doses for 48 – 72 hours), the “Expression of thyroglobulin and NIS” value is recorded as “induced expression”. Also, in data set [8], the Radioactive iodine uptake result was “increased radioactive iodine uptake”. Also, the “Patients requiring dose reduction” value in data set [9] (human) is 7 of 9. Further, in data set [9] (human, 21 day), the Anorexia was 4 # pts (%), the “Grade 4 toxicities” value is “none in cycle 1”, the Hypocalcemia is on record as 5 (18%) # pts (%) and the Nausea is given as 3 # pts (%). Further, in [9] (human, 21 day), the “Recommended phase II dose (RP2D)” value is listed as 7 mg/m^2 and the Vomiting is on record as 2 # pts (%). In addition, the Vomiting in data set [9] (human, 21 days) is given as 9 (32%) # pts (%). Moreover, in [9], the Febrile neutropenia result is listed as “no episodes of febrile neutropenia”; the “Grade 3 nausea and vomiting at dose level 4” value is “not considered dose-limiting”. Further, in data set [10], the “Dose identified as tolerable” value is reported as 7 mg/m^2. The “RAI uptake on follow-up RAI scans” value in data set [11] is “did not detect meaningful increases; also recorded: None demonstrated significant uptake; also recorded: did not demonstrate a significant increase in RAI uptake”. For the same molecule, in data set [12], the ORR is reported as 25–38%. For the same molecule, the “Patients with increase in RAI avidity” value in [1] (patients scanned following romidepsin) is reported as 2 of 16.
